# Experiments:
# [1] = target: T1, DDR2 (Homo sapiens, UniProt Q16832); assay: LanthaScreen Europium Kinase Binding assay, DDR2; settings: 5 nM DDR2, 10 nM Kinase Tracer 178, 1 h at rt; Ki from IC50 by Cheng-Prusoff; read-out: Ki DDR2
# T1 construct: purchased Life Technologies
# T1 sequence (Q16832 22-855): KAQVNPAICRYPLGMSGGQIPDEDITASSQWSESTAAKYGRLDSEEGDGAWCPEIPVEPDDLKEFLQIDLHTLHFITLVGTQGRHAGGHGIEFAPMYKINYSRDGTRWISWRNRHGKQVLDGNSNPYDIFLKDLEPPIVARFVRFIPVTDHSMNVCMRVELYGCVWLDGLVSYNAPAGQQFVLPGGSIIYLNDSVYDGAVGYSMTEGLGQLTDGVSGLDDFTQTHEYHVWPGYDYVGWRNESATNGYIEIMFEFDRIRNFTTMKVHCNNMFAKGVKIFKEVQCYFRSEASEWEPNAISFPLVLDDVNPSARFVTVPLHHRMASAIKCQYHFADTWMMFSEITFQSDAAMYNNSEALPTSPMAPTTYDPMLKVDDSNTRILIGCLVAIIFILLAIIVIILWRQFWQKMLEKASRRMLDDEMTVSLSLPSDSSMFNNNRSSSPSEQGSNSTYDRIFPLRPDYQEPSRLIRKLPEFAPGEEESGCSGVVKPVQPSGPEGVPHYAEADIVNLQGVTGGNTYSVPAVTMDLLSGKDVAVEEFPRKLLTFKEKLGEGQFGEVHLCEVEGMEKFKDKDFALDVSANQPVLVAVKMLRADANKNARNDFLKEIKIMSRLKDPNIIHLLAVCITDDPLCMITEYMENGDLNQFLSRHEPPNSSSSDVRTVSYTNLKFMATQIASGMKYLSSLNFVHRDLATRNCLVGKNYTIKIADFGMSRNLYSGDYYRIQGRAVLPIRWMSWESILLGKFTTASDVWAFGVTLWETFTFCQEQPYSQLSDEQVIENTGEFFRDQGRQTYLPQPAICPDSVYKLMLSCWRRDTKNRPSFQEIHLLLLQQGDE
# Procedure: (§1) DDR1 and DDR2 binding assays were performed using Life Technologies LanthaScreen™ Europium Kinase Binding assay. […] IC50 values were determined in GraphPad Prism 7.0 software, using 4 parameter model: log (inhibitor) vs. response. IC50 values were converted in Ki using the Cheng-Prusoff equation (Ki-IC50/(1+ [Tracer]/Kd).
# [2] = target: T2, DDR1 (Homo sapiens, UniProt Q08345); assay: LanthaScreen Europium Kinase Binding assay, DDR1; settings: 5 nM DDR1, 20 nM Kinase Tracer 178, 1 h at rt; Ki from IC50 by Cheng-Prusoff; read-out: Ki DDR1
# T2 construct: purchased Carna Biosciences
# T2 sequence (Q08345 19-913): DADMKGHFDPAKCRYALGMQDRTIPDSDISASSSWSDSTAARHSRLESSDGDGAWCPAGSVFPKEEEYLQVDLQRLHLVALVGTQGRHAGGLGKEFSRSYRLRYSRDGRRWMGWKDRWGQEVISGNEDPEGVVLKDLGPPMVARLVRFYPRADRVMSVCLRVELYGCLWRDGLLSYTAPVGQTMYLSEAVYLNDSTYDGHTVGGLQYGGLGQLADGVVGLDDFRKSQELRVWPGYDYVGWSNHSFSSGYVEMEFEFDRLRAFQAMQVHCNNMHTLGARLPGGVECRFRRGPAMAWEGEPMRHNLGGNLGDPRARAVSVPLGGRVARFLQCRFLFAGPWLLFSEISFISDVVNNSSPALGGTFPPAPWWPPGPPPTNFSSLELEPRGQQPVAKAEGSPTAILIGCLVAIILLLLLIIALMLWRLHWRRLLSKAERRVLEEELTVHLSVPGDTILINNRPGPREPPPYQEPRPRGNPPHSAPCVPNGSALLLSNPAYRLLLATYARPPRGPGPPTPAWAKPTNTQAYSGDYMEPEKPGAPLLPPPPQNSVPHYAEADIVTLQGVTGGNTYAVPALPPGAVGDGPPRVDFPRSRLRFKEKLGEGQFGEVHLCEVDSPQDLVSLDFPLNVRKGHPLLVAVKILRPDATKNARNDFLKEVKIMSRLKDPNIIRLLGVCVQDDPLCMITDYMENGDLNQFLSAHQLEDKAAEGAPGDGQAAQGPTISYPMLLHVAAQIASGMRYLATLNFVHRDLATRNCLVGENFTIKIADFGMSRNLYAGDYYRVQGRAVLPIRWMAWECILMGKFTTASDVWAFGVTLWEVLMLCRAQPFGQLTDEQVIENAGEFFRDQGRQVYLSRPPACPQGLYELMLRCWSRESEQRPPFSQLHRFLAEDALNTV
# Procedure: as §1
Ki [1] [nM],Ki [2] [nM],SMILES
5 to 25,< 5,"CN(C(=O)Nc1cncc(OC(F)(F)F)c1)C1CC2(C1)CN(C(=O)c1cnn3ccn(C)c13)C2 [Example 172, 1-methyl-1-(2-(1-methyl-1H-imidazo[1,2-b]pyrazole-7-carbonyl)-2-azaspiro[3.3]heptan-6-yl)-3-(5-(trifluoromethoxy)pyridin-3-yl)urea]"
25 to 100,< 5,"CN(C(=O)Nc1cncc(C(C)(F)F)c1)C1CC2(C1)CN(C(=O)c1cnn3ccn(C)c13)C2 [Example 173, 3-(5-(1,1-difluoroethyl)pyridin-3-yl)-1-methyl-1-(2-(1-methyl-1H-imidazo[1,2-b]pyrazole-7-carbonyl)-2-azaspiro[3.3]heptan-6-yl)urea]"
5 to 25,< 5,"Cn1ccn2ncc(C(=O)N3CC4(CC(N(CC(F)(F)F)C(=O)Nc5cccc(C(F)(F)F)c5)C4)C3)c12 [Example 174, 1-(2-(1-methyl-1H-imidazo[1,2-b]pyrazole-7-carbonyl)-2-azaspiro[3.3]heptan-6-yl)-1-(2,2,2-trifluoroethyl)-3-(3-(trifluoromethyl)phenyl)urea]"
25 to 100,5 to 25,"CN(C(=O)Nc1cncc(C(F)(F)F)c1)C1CC2(C1)CN(C(=O)c1cnn3ccncc13)C2 [Example 175, 1-methyl-1-(2-(pyrazolo[1,5-a]pyrazine-3-carbonyl)-2-azaspiro[3.3]heptan-6-yl)-3-(5-(trifluoromethyl)pyridin-3-yl)urea]"
25 to 100,5 to 25,"CN(C(=O)Nc1cncc(OC(F)(F)F)c1)C1CC2(C1)CN(C(=O)c1cnn3ccncc13)C2 [Example 176, 1-methyl-1-(2-(pyrazolo[1,5-a]pyrazine-3-carbonyl)-2-azaspiro[3.3]heptan-6-yl)-3-(5-(trifluoromethoxy)pyridin-3-yl)urea]"
25 to 100,< 5,"CN(C(=O)Nc1cc(OC(F)F)ccn1)C1CC2(C1)CN(C(=O)c1cnn3ccn(C)c13)C2 [Example 177, 3-(4-(difluoromethoxy)pyridin-2-yl)-1-methyl-1-(2-(1-methyl-1H-imidazo[1,2-b]pyrazole-7-carbonyl)-2-azaspiro[3.3]heptan-6-yl)urea]"
25 to 100,< 5,"CN(C(=O)Nc1cc(C(F)(F)F)ncn1)C1CC2(C1)CN(C(=O)c1cnn3ccsc13)C2 [Example 178, 1-methyl-1-(2-(pyrazolo[5,1-b]thiazole-7-carbonyl)-2-azaspiro[3.3]heptan-6-yl)-3-(6-(trifluoromethyl)pyrimidin-4-yl)urea]"
5 to 25,< 5,"CN(C(=O)Nc1cncc(OC(F)(F)F)c1)C1CC2(C1)CN(C(=O)c1cnn3ccsc13)C2 [Example 179, 1-methyl-1-(2-(pyrazolo[5,1-b]thiazole-7-carbonyl)-2-azaspiro[3.3]heptan-6-yl)-3-(5-(trifluoromethoxy)pyridin-3-yl)urea]"
5 to 25,< 5,"Cc1ncc(NC(=O)N(C)C2CC3(C2)CN(C(=O)c2cnn4ccn(C)c24)C3)cc1C(F)(F)F [Example 180, 1-methyl-1-(2-(1-methyl-1H-imidazo[1,2-b]pyrazole-7-carbonyl)-2-azaspiro[3.3]heptan-6-yl)-3-(6-methyl-5-(trifluoromethyl)pyridin-3-yl)urea]"
5 to 25,< 5,"Cc1ncc(NC(=O)NC2CC3(C2)CN(C(=O)c2cnn4ccn(C)c24)C3)cc1C(F)(F)F [Example 181, 1-(2-(1-methyl-1H-imidazo[1,2-b]pyrazole-7-carbonyl)-2-azaspiro[3.3]heptan-6-yl)-3-(6-methyl-5-(trifluoromethyl)pyridin-3-yl)urea]"
< 5,< 5,"Cn1cc(-c2ccc3c(C(=O)N4CC5(CC(NC(=O)Nc6cccc(C(F)(F)F)c6)C5)C4)cnn3c2)cn1 [Example 182, 1-(2-(6-(1-methyl-1H-pyrazol-4-yl)pyrazolo[1,5-a]pyridine-3-carbonyl)-2-azaspiro[3.3]heptan-6-yl)-3-(3-(trifluoromethyl)phenyl)urea]"
5 to 25,< 5,"O=C(Nc1cccc(C(F)(F)F)c1)NC1CC2(C1)CN(C(=O)c1cnn3ccc(N4CCS(=O)(=O)CC4)cc13)C2 [Example 183, 1-(2-(5-(1,1-dioxidothiomorpholino)pyrazolo[1,5-a]pyridine-3-carbonyl)-2-azaspiro[3.3]heptan-6-yl)-3-(3-(trifluoromethyl)phenyl)urea]"
< 5,< 5,"Nc1ccn2ncc(C(=O)N3CC4(CC(NC(=O)Nc5cccc(C(F)(F)F)c5)C4)C3)c2c1 [Example 184, 1-(2-(5-aminopyrazolo[1,5-a]pyridine-3-carbonyl)-2-azaspiro[3.3]heptan-6-yl)-3-(3-(trifluoromethyl)phenyl)urea]"
< 5,< 5,"O=C(Nc1cccc(C(F)(F)F)c1)NC1CC2(C1)CN(C(=O)c1cnn3ccc(N4CCC(O)C4)cc13)C2 (stereo not drawn) [Example 185, 1-(2-(5-(3-hydroxypyrrolidin-1-yl)pyrazolo[1,5-a]pyridine-3-carbonyl)-2-azaspiro[3.3]heptan-6-yl)-3-(3-(trifluoromethyl)phenyl)urea]"
5 to 25,< 5,"CN1CCN(c2ccn3ncc(C(=O)N4CC5(CC(NC(=O)Nc6cccc(C(F)(F)F)c6)C5)C4)c3c2)C(=O)C1 [Example 186, 1-(2-(5-(4-methyl-2-oxopiperazin-1-yl)pyrazolo[1,5-a]pyridine-3-carbonyl)-2-azaspiro[3.3]heptan-6-yl)-3-(3-(trifluoromethyl)phenyl)urea]"
5 to 25,< 5,"Cn1ccn2ncc(C(=O)N3CC4(CC(N(C(=O)Nc5cccc(C(F)(F)F)c5)C5CC5)C4)C3)c12 [Example 187, 1-cyclopropyl-1-(2-(1-methyl-1H-imidazo[1,2-b]pyrazole-7-carbonyl)-2-azaspiro[3.3]heptan-6-yl)-3-(3-(trifluoromethyl)phenyl)urea]"
5 to 25,< 5,"Cc1ccc(OC(F)(F)F)cc1NC(=O)N(C)C1CC2(C1)CN(C(=O)c1ccnc3[nH]ncc13)C2 [Example 188, 1-(2-(1H-pyrazolo[3,4-b]pyridine-4-carbonyl)-2-azaspiro[3.3]heptan-6-yl)-1-methyl-3-(2-methyl-5-(trifluoromethoxy)phenyl)urea]"
5 to 25,5 to 25,"CN(C(=O)Nc1cc(OC(F)(F)F)ccn1)C1CC2(C1)CN(C(=O)c1ccnc3[nH]ncc13)C2 [Example 189, 1-(2-(1H-pyrazolo[3,4-b]pyridine-4-carbonyl)-2-azaspiro[3.3]heptan-6-yl)-1-methyl-3-(4-(trifluoromethoxy)pyridin-2-yl)urea]"
25 to 100,5 to 25,"CN(C(=O)Nc1cc(OC(F)(F)F)ccn1)C1CC2(C1)CN(C(=O)c1cnn3ccncc13)C2 [Example 190, 1-methyl-1-(2-(pyrazolo[1,5-a]pyrazine-3-carbonyl)-2-azaspiro[3.3]heptan-6-yl)-3-(4-(trifluoromethoxy)pyridin-2-yl)urea]"
5 to 25,< 5,CC1(NC(=O)Nc2cccc(C(F)(F)F)c2)CC2(CN(C(=O)c3ncnc4ccsc34)C2)C1 [Example 191]
25 to 100,25 to 100,"Cn1cc(N2CCOCC2)n2ncc(C(=O)N3CC4(CC(NC(=O)Nc5cccc(C(F)(F)F)c5)C4)C3)c12 [Example 192, 1-(2-(1-methyl-3-morpholino-1H-imidazo[1,2-b]pyrazole-7-carbonyl)-2-azaspiro[3.3]heptan-6-yl)-3-(3-(trifluoromethyl)phenyl)urea]"
5 to 25,< 5,"Cc1cc(C(F)(F)F)cc(NC(=O)N(C)C2CC3(C2)CN(C(=O)c2cnn4ccn(C)c24)C3)c1F [Example 193, 3-(2-fluoro-3-methyl-5-(trifluoromethyl)phenyl)-1-methyl-1-(2-(1-methyl-1H-imidazo[1,2-b]pyrazole-7-carbonyl)-2-azaspiro[3.3]heptan-6-yl)urea]"
5 to 25,< 5,"CSCCn1ccn2ncc(C(=O)N3CC4(CC(NC(=O)Nc5cccc(C(F)(F)F)c5)C4)C3)c12 [Example 194, 1-(2-(1-(2-(methylthio)ethyl)-1H-imidazo[1,2-b]pyrazole-7-carbonyl)-2-azaspiro[3.3]heptan-6-yl)-3-(3-(trifluoromethyl)phenyl)urea]"
5 to 25,< 5,"CN(C(=O)Nc1cccc(C(F)(F)F)c1)C1CC2(C1)CN(C(=O)c1cnn3ccn(CCF)c13)C2 [Example 195, 1-(2-(1-(2-fluoroethyl)-1H-imidazo[1,2-b]pyrazole-7-carbonyl)-2-azaspiro[3.3]heptan-6-yl)-1-methyl-3-(3-(trifluoromethyl)phenyl)urea]"
